# Test results as given in US20210040118A1, “IMMUNOMODULATORS, COMPOSITIONS AND METHODS THEREOF” (BETTA PHARMACEUTICALS CO., LTD, priority 2018, published 2021).
# Molecular target: T1, PD-1/PD-L1 (Homo sapiens, UniProt Q9NZQ7)
# T1 construct: Recombinant human PD-L1 protein (19-238) with a His-tag at the C-terminus; purchased AcroBiosystems PD1-H5229 (PD-L1); PD1-H5257 (PD-1)
# Assay: PD-1/PD-L1 homogenous time-resolved fluorescence (HTRF) binding assay
# Details: recombinant human PD-L1 (19-238) His-tag / human PD-1 (25-167) Fc tag, class symbols
# Procedure, shortened: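 HTRF binding of human PD-1 (25-167, Fc-tagged) at 3 nM and PD-L1 (19-238, His-tagged) at 10 nM, preincubated 40 min with inhibitor in PBS pH 7.4, 0.05% Tween-20, 0.1% BSA, 1% DMSO, 25°C. Eu anti-IgG (1 nM) and anti-His-APC (20 nM) added, 60 min; 665/620 nm ratio; IC50 from curve fit.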
# T1 sequence (Q9NZQ7 19-238): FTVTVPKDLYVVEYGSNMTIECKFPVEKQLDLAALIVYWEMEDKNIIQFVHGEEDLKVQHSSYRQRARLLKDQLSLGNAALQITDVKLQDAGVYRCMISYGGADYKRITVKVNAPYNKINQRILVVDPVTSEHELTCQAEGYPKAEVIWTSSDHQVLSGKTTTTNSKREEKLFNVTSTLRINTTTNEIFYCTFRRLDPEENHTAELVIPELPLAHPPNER
row,Compound,IC50 [nM]
1,"COC(=O)N[C@H](C(=O)N1CCc2nc(C(=O)N3CCc4c(-c5cccc6c5CCN6C(=O)c5ccc6c(n5)CCN(C(=O)[C@@H](NC(=O)OC)C(C)C)C6)cccc43)ccc2C1)C(C)C [Example 168, dimethyl ((2S,2'S)-(([4,4′-biindoline]-1,1′-dicarbonyl)bis(7,8-dihydro-1,6-naphthyridine-2,6(5H)-diyl))bis(3-methyl-1-oxobutane-1,2-diyl))dicarbamate]",< 25
2,"COC(=O)N[C@H](C(=O)N1CCc2nc(C(=O)Nc3cccc(-c4cccc(NC(=O)c5ccc6c(n5)CCN(C(=O)[C@@H](NC(=O)OC)C(C)C)C6)c4C)c3C)ccc2C1)C(C)C [Example 169, dimethyl ((2S,2'S)-((((2,2′-dimethyl-[1,1′-biphenyl]-3,3′-diyl)bis(azanediyl))bis(carbonyl))bis(7,8-dihydro-1,6-naphthyridine-2,6(5H)-diyl))bis(3-methyl-1-oxobutane-1,2-diyl))dicarbamate]",< 25
3,"CCOC(=O)CN1CCc2nc(C(=O)Nc3cccc(-c4cccc(NC(=O)c5ccc6c(n5)CCNC6)c4C)c3C)ccc2C1 [Example 170, ethyl 2-(2-((2,2′-dimethyl-3′-(5,6,7,8-tetrahydro-1,6-naphthyridine-2-carboxamido)-[1,1′-biphenyl]-3-yl)carbamoyl)-7,8-dihydro-1,6-naphthyridin-6(5H)-yl)acetate]",< 25
4,"Cc1c(NC(=O)c2ccc3c(n2)CCN(CC(=O)OC(C)(C)C)C3)cccc1-c1cccc(NC(=O)c2ccc3c(n2)CCN(CC(=O)OC(C)(C)C)C3)c1C [Example 172, di-tert-butyl 2,2′-((((2,2′-dimethyl-[1,1′-biphenyl]-3,3′-diyl)bis(azanediyl))bis(carbonyl))bis(7,8-dihydro-1,6-naphthyridine-2,6(5H)-diyl))diacetate]",100 to 200
5,"Cc1c(NC(=O)c2ccc3c(n2)CCN(CC(=O)O)C3)cccc1-c1cccc(NC(=O)c2ccc3c(n2)CCN(CC(=O)O)C3)c1C [Example 173, 2,2′-((((2,2′-dimethyl-[1,1′-biphenyl]-3,3′-diyl)bis(azanediyl))bis(carbonyl))bis(7,8-dihydro-1,6-naphthyridine-2,6(5H)-diyl))diacetic acid]",< 25
6,"Cc1c(NC(=O)c2ccc3c(n2)CCN(CCO)C3)cccc1-c1cccc(NC(=O)c2ccc3c(n2)CCN(CCO)C3)c1C [Example 174, N,N′-(2,2′-dimethyl-[1,1′-biphenyl]-3,3′-diyl)bis(6-(2-hydroxyethyl)-5,6,7,8-tetrahydro-1,6-naphthyridine-2-carboxamide)]",< 25
7,"Cc1c(NC(=O)c2ccc3c(n2)CCN(C)C3)cccc1-c1cccc(NC(=O)c2ccc3c(n2)CCN(C)C3)c1C [Example 175, N,N′-(2,2′-dimethyl-[1,1′-biphenyl]-3,3′-diyl)bis(6-methyl-5,6,7,8-tetrahydro-1,6-naphthyridine-2-carboxamide)]",< 25
8,"Cc1c(NC(=O)c2ccc3c(n2)CCN(CCN2CCOCC2)C3)cccc1-c1cccc(NC(=O)c2ccc3c(n2)CCN(CCN2CCOCC2)C3)c1C [Example 176, N,N′-(2,2′-dimethyl-[1,1′-biphenyl]-3,3′-diyl)bis(6-(2-morpholinoethyl)-5,6,7,8-tetrahydro-1,6-naphthyridine-2-carboxamide)]",25 to 100
9,"CCOC(=O)CNC(C)c1cnc(C(=O)Nc2cccc(-c3cccc(NC(=O)c4cnc(C(C)NCC(=O)OCC)cn4)c3C)c2C)cn1 (stereo not drawn) [Example 179, diethyl 2,2′-((((((2,2′-dimethyl-[1,1′-biphenyl]-3,3′-diyl)bis(azanediyl))bis(carbonyl))bis(pyrazine-5,2-diyl))bis(ethane-1,1-diyl))bis(azanediyl))diacetate]",25 to 100
10,"CNC(C)c1cnc(C(=O)Nc2cccc(-c3cccc(NC(=O)c4cnc(C(C)NC)cn4)c3C)c2C)cn1 (stereo not drawn) [Example 180, N,N′-(2,2′-dimethyl-[1,1′-biphenyl]-3,3′-diyl)bis(5-(1-(methylamino)ethyl)pyrazine-2-carboxamide)]",< 25
11,"Cc1c(NC(=O)c2cnc(C(C)NCCO)cn2)cccc1-c1cccc(NC(=O)c2cnc(C(C)NCCO)cn2)c1C (stereo not drawn) [Example 181, N,N′-(2,2′-dimethyl-[1,1′-biphenyl]-3,3′-diyl)bis(5-(1-((2-hydroxyethyl)amino)ethyl)pyrazine-2-carboxamide)]",< 25
12,"CC(=O)N1CCc2nc(C(=O)Nc3cccc(-c4cccc(NC(=O)c5ccc6c(n5)CCNC6)c4C)c3C)ccc2C1 [Example 182, 6-acetyl-N-(2,2′-dimethyl-3′-(5,6,7,8-tetrahydro-1,6-naphthyridine-2-carboxamido)-[1,1′-biphenyl]-3-yl)-5,6,7,8-tetrahydro-1,6-naphthyridine-2-carboxamide]",< 25
13,"CC(=O)N1CCc2c(nc(C(=O)Nc3cccc(-c4cccc(NC(=O)c5ccc6c(n5)CCNC6)c4C)c3C)n2C)C1 [Example 183, N-(3′-(5-acetyl-1-methyl-4,5,6,7-tetrahydro-1H-imidazo[4,5-c]pyridine-2-carboxamido)-2,2′-dimethyl-[1,1′-biphenyl]-3-yl)-5,6,7,8-tetrahydro-1,6-naphthyridine-2-carboxamide]",< 25
14,"Cc1oc(=O)oc1COC(=O)N1CCc2nc(C(=O)Nc3cccc(-c4cccc(NC(=O)c5ccc6c(n5)CCN(C(=O)OCc5oc(=O)oc5C)C6)c4C)c3C)ccc2C1 [Example 184, bis((5-methyl-2-oxo-1,3-dioxol-4-yl)methyl) 2,2′-(((2,2′-dimethyl-[1,1′-biphenyl]-3,3′-diyl)bis(azanediyl))bis(carbonyl))bis(7,8-dihydro-1,6-naphthyridine-6(5H)-carboxylate)]",> 200
15,"Cc1c(NC(=O)c2ccc3c(n2)CCNC3)cccc1-c1cccc(NC(=O)c2ccc3c(n2)CCN(C)C3)c1C [Example 185, N-(2,2′-dimethyl-3′-(5,6,7,8-tetrahydro-1,6-naphthyridine-2-carboxamido)-[1,1′-biphenyl]-3-yl)-6-methyl-5,6,7,8-tetrahydro-1,6-naphthyridine-2-carboxamide]",< 25
16,"Cc1c(NC(=O)c2ccc3c(n2)CCNC3)cccc1-c1cccc(NC(=O)c2ccc3c(n2)CCN(CCO)C3)c1C [Example 186, N-(2,2′-dimethyl-3′-(5,6,7,8-tetrahydro-1,6-naphthyridine-2-carboxamido)-[1,1′-biphenyl]-3-yl)-6-(2-hydroxyethyl)-5,6,7,8-tetrahydro-1,6-naphthyridine-2-carboxamide]",< 25
17,"Cc1c(NC(=O)c2ccc3c(n2)CCN(CC(F)F)C3)cccc1-c1cccc(NC(=O)c2ccc3c(n2)CCN(CC(F)F)C3)c1C [Example 187, N,N′-(2,2′-dimethyl-[1,1′-biphenyl]-3,3′-diyl)bis(6-(2,2-difluoroethyl)-5,6,7,8-tetrahydro-1,6-naphthyridine-2-carboxamide)]",25 to 100
18,"Cc1c(NC(=O)c2ncc3c(n2)CCNC3)cccc1-c1cccc(NC(=O)c2ncc3c(n2)CCNC3)c1C [Example 188, N,N′-(2,2′-dimethyl-[1,1′-biphenyl]-3,3′-diyl)bis(5,6,7,8-tetrahydropyrido[4,3-d]pyrimidine-2-carboxamide)]",< 25
